Measurements: patent publication US20120070445A1, “BRAIN-DERIVED GONADOTROPINS AND COGNITION” (priority 2006, published 2012)

How the values were obtained:
[1] = tested on: Aβ; test: Hippocampal Aβ burden (% area stained) in Tg2576 mice; format: in vivo; settings: vs saline-treated, p<0.05
Excerpt: Scale bar, 200 μm. […] In this initial study we used aged animals to 1) circumvent the estrogen issue, since aged mice, like humans show estropause and 2) to examine the effects of LH ablation once the disease is well established.

[2] = tested on: AD patients; settings: high doses, completed phase II trial; cited from earlier work
[3] = tested on: Aβ; settings: APP transgenic mice, recent study; cited from earlier work
[4] = tested on: LH; test: Serum LH and pituitary LHβ mRNA after leuprolide acetate; format: in vivo, Tg2576 mice
[5] = tested on: Tg2576 mice; test: Y-maze performance in aged Tg2576 mice; format: in vivo; settings: 21 month old Tg2576 female mice, 3 months treatment vs placebo/saline, p<0.01
[6] = tested on: C57/B6 female mice; test: Morris Water Maze in ovariectomized mice (training and probe trial); format: in vivo; settings: for length of time taken to locate the invisible platform across days (rescue of OVX-associated cognitive decline): OVX mice, three training days
Procedure: (Significance indicated by: *=P+S vs E+S; #=P+S vs P+L; $=P+S vs SHAM; %=P+S vs E+L; at p<0.05).
Additionally, to further determine the memory function and training success in the animals we measured the capacity of the animals to retain the information learned using a probe trial. In this regard, at the end of the last day of training we removed the platform and let the animals swim for 1 minute.

[7] = tested on: Tg2576 mice; settings: APP transgenic mice, recent study; cited from earlier work
[8] = tested on: C57/B6 female mice; test: Y-maze in ovariectomized mice with or without estrogen replacement; format: in vivo; settings: OVX mice
[9] = Body weight 3 months post-surgery + replacement + drug treatment
Excerpt: In addition we added a SHAM ovariectomized group that received saline and a placebo pallet (n=10). During the last two weeks of the study all animals have been tested for Y-maze and Morris Water Maze performance.

Compound	Aβ burden, % area stained in the entire hippocampus [1]	cognitive impairment and activities of daily living [2]	amyloid-β load in the hippocampus [3]	serum LH ([4]; Tg2576 mice, vs saline, P<0.02)	LHβ mRNA expression in the pituitary ([4]; mice, 6 and 8 week treatment vs saline)	cognitive decline (Y-maze % alternations, change from baseline) [5]	length of time taken to locate the invisible platform across days (rescue of OVX-associated cognitive decline) [6]	learning rate in Morris Water Maze ([6]; independent of replacement regimen, vs saline, p=0.027)	latency to enter NE quadrant, probe trial ([6]; regardless of replacement regimen, 0.041)	distance swam in NE quadrant, probe trial ([6]; regardless of replacement regimen, p=0.003)	number of platform crossings, probe trial ([6]; regardless of replacement regimen, p=0.004)	latency to enter platform location, probe trial ([6]; regardless of replacement regimen, p=0.005)	Y-maze performance [7]	Y-maze performance ([8]; leuprolide acetate 7.5 mg/kg for 3 months vs saline, specific to placebo replaced group (p=0.005))	Body weight ([9]; OVX + Estrogen, Saline, 3 months post-surgery)	body weight of OVX+estrogen replaced group compared with SHAM ([9]; irrespective of drug treatment)	Y-maze performance, estrogen-replaced vs placebo replaced ([8]; saline-treated, t=1.841, p=0.07)
CCNC(=O)[C@@H]1CCCN1C(=O)[C@H](CCCNC(=N)N)NC(=O)[C@H](CC(C)C)NC(=O)[C@@H](CC(C)C)NC(=O)[C@H](Cc1ccc(O)cc1)NC(=O)[C@H](CO)NC(=O)[C@H](Cc1c[nH]c2ccccc12)NC(=O)[C@H](Cc1c[nH]cn1)NC(=O)[C@@H]1CCC(=O)N1 [leuprolide acetate]	significantly lower	stabilization in cognitive impairment and activities of daily living	decreases amyloid-β load	significant decline in serum LH	clear decrease in the expression of LHβ mRNA	significantly attenuates cognitive decline	as effective as estrogen in rescuing OVX-associated cognition decline	learned at a faster rate	entered that quadrant earlier	swam longer distances	crossed it more times	crossed the invisible platform region more earlier	improves Y-maze performance	significantly improved Y-maze performance	–	–	–
Estrogen	–	–	–	–	–	–	rescued by estrogen replacement	–	–	–	–	–	–	–	23.5	not different from the SHAM operated group	strong trend
